Legend:
[1] = Thermo-gravimetric analysis (TGA); assay type: physicochemical; details: TGA at 10° C./min in nitrogen, 50-800° C.
Protocol: The chlorhexidine chloride spheres (0.33M CaCl2 group) were analysed by Thermo-gravimetric analysis (TGA Q50, USA). Chlorhexidine diacetate crystals and CaCl2 powder (Sigma-Aldrich, C8106, Lot: SLBF7416V) were tested as comparisons. TGA was carried out at 10° C./min in a nitrogen atmosphere, over a temperature range of 50-800° C. The chlorhexidine proportion was further confirmed by the TGA result. […] The decomposition temperature of the chlorhexidine chloride spheres (210° C.) was higher than the chlorhexidine diacetate crystals (120° C.).

[2] = Chlorhexidine release from PMMA resin; assay type: physicochemical; details: 5% loading, after 650 hours
Protocol: (§1) For the release study, all sample resin discs (HEMA-UDMA) containing chlorhexidine chloride compounds or chlorhexidine diacetate powder prepared in Example 5 were kept in cuvettes containing 3 ml deionized water, and kept at room temperature. And at each time point, solutions were collected for UV absorption tests (Lambda 35, Perkin Elmer, USA) and replaced with fresh deionized water.
The PMMA resin system was also tested for the release kinetics of spherical chlorhexidine chloride compounds. Specifically, PMMA resin was prepared by mixing the Simplex Rapid Liquid and powder (Kemdent, Lot: 920 758) at a weight ratio of 1:2. The self-cure process took about 15 min, and after which the mixture was filled into a Teflon mould in the same way and pressed (Mestra, Mod.030350). To incorporate the spherical chlorhexidine chloride compounds, they were previously mixed with the Simplex Rapid powder (5% weight of mixture), and the liquid was added.

[3] = Chlorhexidine release from HEMA-UDMA resin discs, with or without ultrasound; assay type: physicochemical
Protocol: HEMA-UDMA resin was prepared by mixing 64% urethane dimethacrylate (UDMA) (Esschem UK, Lot: 591-22) and 36% hydroxyethyl methacrylate (HEMA) (Aldrich, 128635, Lot: STBC7495V), 0.08% of N,N-dimethyl-P-toluidine (Acros Organics, Lot: A0207283001) and 0.05% dimethylamino ethyl methacrylate (Aldrich, 234907, Lot: BCBF8391V) were added. The mixture was then stirred for 15 min (800 rpm, VWR Stirrer, USA). Finally, camphorquinone (Aldrich, 12, 489-3, Lot: 2338141) was added at the proportion of 0.1%. The mixture was stirred for another 15 min (VWR Stirrer, USA), and then the viscous liquid resin was prepared. Freeze dried chlorhexidine chloride compounds produced in Example 2 (precipitated with 0.33 M CaCl2) were weighed and incorporated within the resin at a loading level of 5% by weight. To explore the effect of different morphology on the release kinetics, chlorhexidine compounds with spherical, needle and flake morphology (from Example 1, FIG. 1, panels (b) and (c)) were incorporated into the resin. Incorporation of the chlorhexidine compounds within the resin was carried out by rotating the mixture contained in a 1 ml tube for 15 s in a Rotomix (120V/60 Hz, 2850 rotations/min) (ESPE RotoMix, USA). Chlorhexidine diacetate was also incorporated in the prepared resin in the same way, with loading rates of 5%, 10% and 15% (weight %). The filled resin was then placed into a Teflon mould (10 mm in diameter ×2 mm thick) and cured through a Mylar film with a curing light (Bluedent LED pen, Bulgaria) (430-490 nm, 600 mW/sq·cm) for 30 s. Then the discs were next weighed on a microbalance (Salter Ander-180A weighing scale, UK), and chlorhexidine content in each disc was calculated.
as §1
For the chlorhexidine chloride compound doped discs (Example 5) chlorhexidine content was fixed at 5%, and ultrasound was exerted. Four groups (five discs in each group) were repetitively treated with ultrasound for 0 s, 10 s, 20 s, 30 s, accordingly, by contacting the ultrasound probe (Piezon Master 400, Swiss, 60 Hz, 45VA) on the disc surface at time points of 1 h, 3 h, 5 h, 15 h, 25 h, 40 h, 65 h, 95 h, 140 h, 205 h. After that, no ultrasound was carried out for all the groups, but release was carried on until the 650 hour time point. The UDMA-HEMA discs containing needle and flake chlorhexidine compounds and chlorhexidine diacetate (FIG. 1, panels (b) and (c), and FIG. 3, panel (g)) were also tested (UV absorption tests) at the same time points (same sample numbers) but without ultrasound treatment. For the chlorhexidine diacetate powder doped discs chlorhexidine content of 5%, 10% and 15% were also analysed, and no ultrasound treatment was carried out.

L929 cells = test: Cytotoxicity assay (MTT); details: for relative cellular viability: 0.001% chlorhexidine spheres
Protocol: 0.5% chlorhexidine spheres stock solution was used to prepare fresh successive dilutions in sterile deionised water to obtain the final concentrations ranging from 0.0005 to 0.25%. For controls (untreated cultures), sterile deionised water was used. 25 μl of each treatment were added into respective wells to achieve final concentrations ranging from 0.00005-0.025%.
L929 cells, a mouse fibroblast-like cell line (ECACC 85011425) were cultured in Dulbecco's Modified Eagle's Medium (DMEM; Lonza, UK) supplemented with 10% fetal bovine serum (FBS) with 100 IU/mL penicillin, 100 μg/mL streptomycin and 2 mmol/L glutamine (all from Invitrogen, UK) in an humidified incubator with 10% CO2 and 95% air at 37° C.
Cell metabolic activity was evaluated by measuring the mitochondrial activity using a method commonly known as a methyl-tetrazolium (MTT) assay. MTT assay was carried out according to the protocols outlined in ISO 1 0993-5:2009 (Biological evaluation of medical devices—Part 5: Tests for in vitro cytotoxicity).
Trypsinisation was performed by routine methods and cell suspension was counted using a haemocytometer and seeded in 96-well microtiter plates at a concentration of 10,000 cells per well. The cells were then left overnight in the incubator to adhere to the wells. Following overnight incubation, medium was removed and cells were washed twice with PBS. The cells were then treated with different concentrations of chlorhexidine spheres (0.00005-0.025%) for 24 and 48 hours. Following treatment, culture medium containing chlorhexidine spheres was removed and 50 μL of 5 mg/mL tetrazolium salt MTT (Sigma-Aldrich, Gillingham, UK) was added to each well and incubated in 37 C for 4 h. Formazan crystals generated by mitochondrial enzyme activity were dissolved by 100 μl of isopropanol and the intensity of purple coloured reaction product quantified by measuring the absorbance spectra at 570 nm. A cell viability level below 70% of control (no treatment) was regarded as the toxic concentration according to the ISO protocol.

Compound `Cl.Cl.N=C(NCCCCCCNC(=N)NC(=N)Nc1ccc(Cl)cc1)NC(=N)Nc1ccc(Cl)cc1` [chlorhexidine spheres] has a decomposition temperature [1] of 210 °C, a chlorhexidine released [2] of 8% and a chlorhexidine release ([3]; 5% loading, control group without ultrasound (0 s), by 205 hours) of 1.2%. For the same compound, the “chlorhexidine released by weight” value ([3]; 5% loading, deionized water, room temperature, no ultrasound, within 65 hours) was 0.76%, the chlorhexidine release ([3]; 5% loading, ultrasound 10 s at each time point, by 205 hours) was 4.6% and the chlorhexidine release ([3]; 5% loading, ultrasound 20 s at each time point, by 205 hours) was 10.1%. The chlorhexidine release ([3]; 5% loading, ultrasound 30 s at each time point, by 205 hours) was 14.9%, the chlorhexidine release ([3]; no ultrasound, after 650 hours) was ~2.7% and the cellular viability (L929 cells; 0.00005% to 0.00025%, both 24 and 48 hours) was “approximately 90%”. The cellular viability (L929 cells; 0.0005%, 24 hours) was > 80%, the cellular viability (L929 cells; 0.0005%, 48 hours) was “below 70%” and the relative cellular viability (L929 cells; 24 hours) was “approximately 50%”. The relative cellular viability (L929 cells; 48 hours) was 20% and the concentrations demonstrating cytotoxicity (L929 cells; L929 cells, viability below 70% of control regarded as toxic) was “above 0.0005%”.

Source: patent US10640463B2, “Chlorhexidine crystal forms and uses thereof in medicine” (Queen Mary University of London, priority 2016, dated 2020)
